The text below walks through data of paper PMC11455950, “Effects of SZV-2649, a new multiple ion channel inhibitor mexiletine analogue” (Scientific Reports, 2024).

Experiment [1] concerns slow delayed rectifier potassium current (IKs). In words: Whole-cell patch-clamp, slow delayed rectifier potassium current in dog ventricular myocytes. The class given is cell-based. The conditions noted are these: 10 µM, dog left ventricular myocytes. As to the method:
The effects of SZV-2649 on transmemrane ionic currents were investigated in dog cardiac myocytes after a 5-minute superfusion of the drug.
The slow delayed rectifier potassium current (IKs) was elicited from the holding potential of -80 mV with a prepulse to -40 mV. The IKs tail current was measured at a post pulse to -40 mV after 5-second-long test pulses from − 20 mV to 50 mV using 10 mV increments at the pulsing cycle length of 10 s (see inset of Fig. 4B). The effect of SZV-2649 was investigated at the concentration of 10 µM.
Ventricular myocytes from Beagle dogs were enzymatically dissociated as described in detail previously. […]
The membrane currents were recorded with Axopatch-200B amplifiers (Molecular Devices, Sunnyvale, CA, USA) by means of the whole-cell configuration of the patch-clamp technique. […]
The inward rectifier (IK1), the transient outward (Ito), the rapid (IKr) and the slow (IKs) delayed rectifier potassium currents were recorded in HEPES-buffered Tyrode’s solution. […] When IKr was recorded, IKs was inhibited by using the selective IKs blocker HMR-1556 (0.5 µM). […]
For orientation: The patch-clamp technique gives a direct electrical read-out from membranes.

Experiment [2] deals with dog Purkinje fiber preparations. Kind of experiment: Conventional microelectrode action potential recording, dog Purkinje fibers. The note with it: CL = 500 ms, n = 10. As for the experimental part: The effects of SZV-2649 on action potentials were studied in dog ventricular, atrial and Purkinje fiber preparations.
Action potentials were recorded in cardiac ventricular trabeculae and papillary muscle preparations obtained from the right ventricles of Beagle dogs (10–15 kg) of either sex using the conventional microelectrode technique. Dogs were sacrificed by iv. sedation with xylazine (1 mg/kg), followed by i.v. administration of 50 mg/kg pentobarbital. After the cornea reflex disapeared the chest was opened, and the heart was rapidly removed. The heart was immediately rinsed in oxygenated modified Locke’s solution containing (in mM): NaCl 128.3, KCl 4, CaCl2 1.8, MgCl2 0.42, NaHCO3 21.4, and glucose 10. The pH of this solution was set between 7.35 and 7.4 when gassed with the mixture of 95% O2 and 5% CO2 at 37 °C.
Isolated papillary muscle or atrial trabecula and Purkinje fiber preparations were obtained and prepared from the right ventricle and were individually mounted in a tissue chamber with the volume of 50 ml. Each preparation was initially stimulated through a pair of platinum electrodes in contact with the preparation using rectangular current pulses of 2 ms duration. These stimuli were delivered at a constant cycle length of 1000 ms for at least 60 min allowing the preparation to equilibrate before the measurements were initiated. Transmembrane potentials were recorded using conventional glass microelectrodes, filled with 3 M KCl and having tip resistances of 5–20 MΩ, connected to the input of a high impedance electrometer (Experimetria, type 309, Budapest, Hungary) which was coupled to a dual beam oscilloscope. […] Attempts were made to maintain the same impalement throughout each experiment. In case an impalement became dislodged, adjustment was attempted, and if the action potential characteristics of the re-established impalement deviated by less than 5% from the previous measurement, the experiment continued[64]–[67]. All measurements were carried out at 37 °C.

As for `CC(N)COc1c(I)cc(C#N)cc1I.Cl` (stereo not drawn) [SZV-2649, 4-(2-aminopropoxy)-3,5-diiodobenzonitrile hydrochloride], the “Effect on amplitude of IKs tail current” value in experiment [1] is listed as “did not change or only minimally decreased”. In addition, in experiment [2] (5 µM), the APA stood at 123.8 ± 2.3 mV, the APD50 is 113.6 ± 5.6 ms, the APD90 came out at 217.4 ± 5.1 ms and the RP was −84.7 ± 1.7 mV. The Vmax in experiment [2] (5 µM) is 507.4 ± 53.4 V/s. In experiment [2] (10 µM), this molecule showed an APA of 119.2 ± 3.3 mV, an APD50 of 112.4 ± 7.9 ms, an APD90 of 223.4 ± 5.6 ms and an RP of −86.0 ± 1.1 mV. In experiment [2] (10 µM), the Vmax is reported as 415.0 ± 28.9 V/s. The Vmax in experiment [2] ([…]) was found to be 581.1 ± 39.0 V/s.
